The source of these data is US20260062412A1, “NITROGEN-CONTAINING HETEROCYCLIC COMPOUND HAVING MYT1 INHIBITORY ACTIVITY” (CHUGAI SEIYAKU KABUSHIKI KAISHA, priority 2023, published 2026).

The target in the assay is MYT1 protein (Homo sapiens (Human), UniProt Q99640). Description: Test for binding to ATP binding site of MYT1 (Kinase Tracer 178 / Eu-Anti-GST antibody TR-FRET). Particulars: ATP binding site of MYT1, 30 minutes at room temperature. (In general: In TR-FRET formats the signal depends on donor and acceptor labels being close together.)
MYT1 protein, sequence (Q99640 whole entry): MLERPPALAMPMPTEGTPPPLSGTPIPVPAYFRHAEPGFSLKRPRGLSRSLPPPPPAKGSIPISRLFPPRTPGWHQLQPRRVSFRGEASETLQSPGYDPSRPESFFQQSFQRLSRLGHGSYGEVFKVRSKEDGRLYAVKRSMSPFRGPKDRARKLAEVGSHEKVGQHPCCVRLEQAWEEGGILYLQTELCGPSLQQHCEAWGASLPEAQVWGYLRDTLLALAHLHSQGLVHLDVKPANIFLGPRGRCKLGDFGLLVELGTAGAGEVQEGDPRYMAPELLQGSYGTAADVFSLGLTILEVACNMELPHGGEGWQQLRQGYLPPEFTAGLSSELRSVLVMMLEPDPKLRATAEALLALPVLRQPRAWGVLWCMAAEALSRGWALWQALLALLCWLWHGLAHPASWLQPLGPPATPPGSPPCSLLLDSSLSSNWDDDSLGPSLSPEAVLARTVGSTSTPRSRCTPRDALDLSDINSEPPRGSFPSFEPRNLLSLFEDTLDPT

As for `Nc1c(-c2ccc(F)c3[nH]ncc23)c2cc(OCC3(F)COC3)c3ncccc3c2[nH]c1=O` [Compound C40, 3-Amino-4-(7-fluoro-1H-indazol-4-yl)-6-[(3-fluorooxetan-3-yl)methoxy]-1H-1,7-phenanthrolin-2-one], the IC50 (usually the concentration that inhibits the measured activity by half) was determined as 4 nM.

In turn, `Nc1c(-c2ccc(F)c3[nH]ncc23)c2cc(CCCF)c3ncccc3c2[nH]c1=O` [Compound C160, 3-Amino-4-(7-fluoro-1H-indazol-4-yl)-6-(3-fluoropropyl)-1H-1,7-phenanthrolin-2-one] yielded an IC50 of 2.5 nM.

In the case of `C=Cc1cc2c(-c3ccc(F)c4[nH]ncc34)c(N)c(=O)[nH]c2c2ccccc12` [Compound B30, 3-Amino-6-ethenyl-4-(7-fluoro-1H-indazol-4-yl)-1H-benzo[h]quinolin-2-one], the IC50 came to 15 nM.

In turn, `CO[C@H]1C[C@H](Oc2cc3c(-c4ccc(F)c5[nH]ncc45)c(N)c(=O)[nH]c3c3cccnc23)C1` [Compound C30, 3-Amino-4-(7-fluoro-1H-indazol-4-yl)-6-((1r,3r)-3-methoxycyclobutoxy)-1,7-phenanthrolin-2(1H)-one] gave an IC50 of 5.8 nM.

For the compound `Nc1c(-c2ccc(F)c3[nH]ncc23)c2cc(Br)c3ncc(F)cc3c2[nH]c1=O` [Compound F1, 3-Amino-6-bromo-9-fluoro-4-(7-fluoro-1H-indazol-4-yl)-1H-1,7-phenanthrolin-2-one], the IC50 came to 12 nM.

For `Cc1ccc2c(ccc3c(-c4ccc(F)c5[nH]ncc45)c(N)c(=O)[nH]c32)n1` [Compound C183, 3-Amino-4-(7-fluoro-1H-indazol-4-yl)-8-methyl-1H-1,7-phenanthrolin-2-one], the IC50 turned out to be 110 nM.

Compound `Nc1c(-c2cc(F)c(F)c3[nH]ncc23)c2cc(C3CCCC3)c3ncccc3c2[nH]c1=O` [Compound C202, 3-Amino-6-cyclopentyl-4-(6,7-difluoro-1H-indazol-4-yl)-1H-1,7-phenanthrolin-2-one] gave an IC50 of 7.7 nM.

In turn, `Nc1nccc(-c2c(N)c(=O)[nH]c3ccc(Cl)cc23)n1` [Compound A69, 3-Amino-4-(2-aminopyrimidin-4-yl)-6-chloro-1H-quinolin-2-one] showed an IC50 of 2500 nM.

Compound `CC(F)(F)COc1cc2c(-c3ccc(F)c4[nH]ncc34)c(N)c(=O)[nH]c2c2cccnc12` [Compound C25, 3-Amino-6-(2,2-difluoropropoxy)-4-(7-fluoro-1H-indazol-4-yl)-1H-1,7-phenanthrolin-2-one] displayed an IC50 of 2.8 nM.

On to `Cc1cc2c(-c3cc(F)c(F)c4[nH]ncc34)c(N)c(=O)[nH]c2c2cc(F)cnc12` [Compound F6, 3-Amino-4-(6,7-difluoro-1H-indazol-4-yl)-9-fluoro-6-methyl-1H-1,7-phenanthrolin-2-one], for which the IC50 stood at 9.3 nM.

`Cc1cc2c(-c3cc(F)c(Cl)c4[nH]ncc34)c(N)c(=O)[nH]c2c2cccnc12` [Compound C196, 3-Amino-4-(7-chloro-6-fluoro-1H-indazol-4-yl)-6-methyl-1H-1,7-phenanthrolin-2-one] showed an IC50 of 3.6 nM.

`Nc1c(-c2ccnc3[nH]ncc23)c2cc(C3CC3)c3ncccc3c2[nH]c1=O` [Compound C82, 3-Amino-6-cyclopropyl-4-(1H-pyrazolo[3,4-b]pyridin-4-yl)-1H-1,7-phenanthrolin-2-one] showed an IC50 of 11 nM.

Consider `Nc1c(-c2ccc(F)c3[nH]ncc23)c2cc(OC(F)F)c3ncccc3c2[nH]c1=O` [Compound C21, 3-Amino-6-(difluoromethoxy)-4-(7-fluoro-1H-indazol-4-yl)-1H-1,7-phenanthrolin-2-one], for which the IC50 was determined as 2.8 nM.

For `Nc1c(-c2ccc(F)c3[nH]ncc23)c2cc(OCC3(F)CC3)c3ncccc3c2[nH]c1=O` [Compound C38, 3-Amino-6-[(1-fluorocyclopropyl)methoxy]-4-(7-fluoro-1H-indazol-4-yl)-1H-1,7-phenanthrolin-2-one], the IC50 worked out at 5.7 nM.

For `Nc1c(-c2cc(F)c(Cl)c3[nH]ncc23)c2cc(Br)c3ncccc3c2[nH]c1=O` [Compound C75, 3-Amino-6-bromo-4-(7-chloro-6-fluoro-1H-indazol-4-yl)-1H-1,7-phenanthrolin-2-one], the IC50 amounted to 1.9 nM.

In turn, `Cc1cc2c(-c3ccc(F)c4[nH]ncc34)c(N)c(=O)[nH]c2c2cc(B(O)O)cnc12` [Compound C189, [3-Amino-4-(7-fluoro-1H-indazol-4-yl)-6-methyl-2-oxo-1H-1,7-phenanthrolin-9-yl]boronic acid] displayed a 50% inhibitory concentration (IC50) of 18 nM.

`CC1(C)CC2(CC(c3cc4c(-c5ccc(F)c6[nH]ncc56)c(N)c(=O)[nH]c4c4cccnc34)C2)C1` [Compound C174, 3-Amino-6-(2,2-dimethylspiro[3,3]heptan-6-yl)-4-(7-fluoro-1H-indazol-4-yl)-1H-1,7-one] showed an IC50 of 140 nM.

For `Cc1n[nH]c2cccc(-c3c(N)c(=O)[nH]c4ccc(Cl)cc34)c12` [Compound A62, 3-Amino-6-chloro-4-(3-methyl-1H-indazol-4-yl)-1H-quinolin-2-one], the half-maximal inhibitory concentration (IC50) amounted to 3900 nM.

Take `CC(O)c1ccc2[nH]c(=O)c(N)c(-c3ccc(Cl)c4[nH]ncc34)c2c1` (stereo not shown) [Compound A32, 3-Amino-4-(7-chloro-1H-indazol-4-yl)-6-(1-hydroxyethyl)-1H-quinolin-2-one]: the IC50 is 16 nM.

Compound `CO[C@@H](C)COc1cc2c(-c3ccc(F)c4[nH]ncc34)c(N)c(=O)[nH]c2c2cccnc12` [Compound C45, 3-Amino-4-(7-fluoro-1H-indazol-4-yl)-6-[(2S)-2-methoxypropoxy]-1H-1,7-phenanthrolin-2-one] returned an IC50 of 3.6 nM.

As to `CC(C)Oc1cc2c(-c3ccc(Cl)c4[nH]ncc34)c(N)c(=O)[nH]c2cc1F` [Compound A1, 3-Amino-4-(7-chloro-1H-indazol-4-yl)-7-fluoro-6-propan-2-yloxy-1H-quinolin-2-one], the IC50 amounted to 29 nM.

In turn, `CC(C)Cc1cc2c(-c3cc(F)c(F)c4[nH]ncc34)c(N)c(=O)[nH]c2c2cccnc12` [Compound C203, 3-Amino-4-(6,7-difluoro-1H-indazol-4-yl)-6-(2-methylpropyl)-1H-1,7-phenanthrolin-2-one] had a half-maximal inhibitory concentration (IC50) of 17 nM.

For `N#CC1(COc2cc3c(-c4ccc(F)c5[nH]ncc45)c(N)c(=O)[nH]c3c3cccnc23)CCC1` [Compound C55, 1-[[3-Amino-4-(7-fluoro-1H-indazol-4-yl)-2-oxo-1H-1,7-phenanthrolin-6-yl]oxymethyl]cyclobutane-1-carbonitrile], the IC50 was found to be 0.92 nM.

`Nc1c(-c2ccc(Cl)c3[nH]ncc23)c2cc(OCC3CC3)c(Cl)cc2[nH]c1=O` [Compound A13, 3-Amino-7-chloro-4-(7-chloro-1H-indazol-4-yl)-6-(cyclopropylmethoxy)-1H-quinolin-2-one] came in with an IC50 of 18 nM.

The compound `Nc1c(-c2ccc(F)c3[nH]ncc23)c2cc(C3CCN(C4COC4)CC3)c3cccnc3c2[nH]c1=O` [Compound D27, 3-Amino-4-(7-fluoro-1H-indazol-4-yl)-6-[1-(oxetan-3-yl)piperidin-4-yl]-1H-1,10-phenanthrolin-2-one] yielded an IC50 of 0.53 nM.

In turn, `CS(=O)(=O)Nc1cccc(-c2c(N)c(=O)[nH]c3ccc(Cl)cc23)c1` [Compound A46, N-[3-(3-amino-6-chloro-2-oxo-1H-quinolin-4-yl)phenyl]methanesulfonamide] yielded an IC50 of 5900 nM.

`Nc1c(-c2ccc(F)c3[nH]ncc23)c2ccc3c(Cl)cccc3c2[nH]c1=O` [Compound B18, 3-Amino-7-chloro-4-(7-fluoro-1H-indazol-4-yl)-1H-benzo[h]quinolin-2-one] registered an IC50 of 23 nM.

For the compound `Nc1c(-c2ccc(F)c3[nH]ncc23)c2cc(N3CC(F)(F)C3)c3ncccc3c2[nH]c1=O` [Compound C123, 3-Amino-6-(3,3-difluoroazetidin-1-yl)-4-(7-fluoro-1H-indazol-4-yl)-1H-1,7-phenanthrolin-2-one], the IC50 stood at 3.4 nM.

`N#C[C@H]1C[C@H](Oc2cc3c(-c4cc(F)c(F)c5[nH]ncc45)c(N)c(=O)[nH]c3c3cccnc23)C1` [Compound C211, (1r,3r)-3-[[3-Amino-4-(6,7-difluoro-1H-indazol-4-yl)-2-oxo-1H-1,7-phenanthrolin-6-yl]oxy]cyclobutane-1-carbonitrile] gave an IC50 of 0.87 nM.

For `Nc1c(-c2ccc(F)c3[nH]ncc23)c2cc(N3CCCC3=O)c3ncccc3c2[nH]c1=O` [Compound C112, 3-Amino-4-(7-fluoro-1H-indazol-4-yl)-6-(2-oxopyrrolidin-1-yl)-1H-1,7-phenanthrolin-2-one], the IC50 amounted to 78 nM.

In turn, `Nc1c(-c2ccc(F)c3[nH]ncc23)c2cc(C3CC3)c3ccc(Cl)cc3c2[nH]c1=O` [Compound B10, 3-Amino-9-chloro-6-cyclopropyl-4-(7-fluoro-1H-indazol-4-yl)-1H-benzo[h]quinolin-2-one] gave an IC50 of 36 nM.

For `Nc1c(-c2cccc(C(F)F)c2)c2cc(Cl)ccc2[nH]c1=O` [Compound A51, 3-Amino-6-chloro-4-[3-(difluoromethyl)phenyl]-1H-quinolin-2-one], the IC50 was found to be 2700 nM.

Compound `Nc1c(-c2ccc(Cl)c3[nH]ncc23)c2cc(Cl)c3ncccc3c2[nH]c1=O` [Compound C77, 3-Amino-6-chloro-4-(7-chloro-1H-indazol-4-yl)-1H-1,7-phenanthrolin-2-one] returned an IC50 of 8.5 nM.

Compound `Cc1cc2c(-c3ccc(F)c4[nH]ncc34)c(N)c(=O)[nH]c2c2sccc12` [Compound L2, 7-Amino-6-(7-fluoro-1H-indazol-4-yl)-4-methyl-9H-thieno[3,2-h]quinolin-8-one] showed an IC50 of 1.8 nM.

Regarding `Cc1c(C)c2c(-c3cc(F)c(F)c4[nH]ncc34)c(N)c(=O)[nH]c2c2cccnc12` [Compound C216, 3-Amino-4-(6,7-difluoro-1H-indazol-4-yl)-5,6-dimethyl-1H-1,7-phenanthrolin-2-one], the IC50 worked out at 3.4 nM.

`Nc1c(-c2ccc(F)c3[nH]ncc23)c2cc(C3CC3)c3c(Cl)cccc3c2[nH]c1=O` [Compound B17, 3-Amino-7-chloro-6-cyclopropyl-4-(7-fluoro-1H-indazol-4-yl)-1H-benzo[h]quinolin-2-one] showed an IC50 of 15 nM.

`Nc1c(-c2ccc(F)c3[nH]ncc23)c2cc(N3CCC4(COC4)C3)c3ncccc3c2[nH]c1=O` [Compound C120, 3-Amino-4-(7-fluoro-1H-indazol-4-yl)-6-(2-oxa-7-azaspiro[3.4]octan-7-yl)-1H-1,7-one] registered an IC50 of 2.9 nM.
